Assay results: ChEMBL document CHEMBL1932978, “Inhibitors of human 2,3-oxidosqualene cyclase (OSC) discovered by virtual screening” (Bioorg Med Chem Lett, 2012)

What was measured:
[1] = target: T1, Lanosterol synthase (Homo sapiens) (UniProt P48449); experiment: Inhibition of human OSC expressed in Saccharomyces cerevisiae at 20 uM by gas chromatography relative to LDAO2
T1 sequence (whole entry): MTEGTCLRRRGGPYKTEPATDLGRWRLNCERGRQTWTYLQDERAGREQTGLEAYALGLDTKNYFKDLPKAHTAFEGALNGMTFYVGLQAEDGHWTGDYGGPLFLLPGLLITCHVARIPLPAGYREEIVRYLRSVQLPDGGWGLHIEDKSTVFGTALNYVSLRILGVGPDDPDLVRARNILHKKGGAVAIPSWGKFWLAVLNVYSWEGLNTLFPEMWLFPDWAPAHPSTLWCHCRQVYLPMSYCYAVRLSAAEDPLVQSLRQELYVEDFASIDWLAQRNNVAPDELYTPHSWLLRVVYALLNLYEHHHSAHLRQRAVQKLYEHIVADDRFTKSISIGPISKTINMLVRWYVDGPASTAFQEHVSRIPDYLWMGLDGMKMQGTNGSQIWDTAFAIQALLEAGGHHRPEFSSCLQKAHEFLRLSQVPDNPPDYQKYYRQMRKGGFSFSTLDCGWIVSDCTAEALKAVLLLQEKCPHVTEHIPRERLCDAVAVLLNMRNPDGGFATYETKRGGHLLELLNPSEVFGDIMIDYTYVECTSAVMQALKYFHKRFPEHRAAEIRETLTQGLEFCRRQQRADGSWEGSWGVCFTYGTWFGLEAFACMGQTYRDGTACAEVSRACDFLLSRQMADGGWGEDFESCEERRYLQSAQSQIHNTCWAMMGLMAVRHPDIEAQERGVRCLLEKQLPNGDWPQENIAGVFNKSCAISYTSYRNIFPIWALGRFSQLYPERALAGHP

Lanosterol synthase = target: T2, Lanosterol synthase (Homo sapiens, UniProt P48449); experiment: Inhibition of human OSC expressed in Saccharomyces cerevisiae by gas chromatography
T2 sequence (P48449 whole entry): T1 sequence (whole entry)

SMILES	inhibition [1] [%]	IC50 (Lanosterol synthase) [µM]
Cc1cc(CNCc2ccc(CN(C)C)cc2)c(C)n1CC(C)C	27	
O=C(Cc1ccc(Cl)cc1)c1ccc(C(=O)NCCCn2ccnc2)[nH]1	59	
CN(C)Cc1ccc(CNCc2cnn(-c3ccccc3)n2)cc1	77	
CN(C)Cc1ccc(CNC(=O)c2ccc(C(F)(F)F)cc2)cc1	101	1.38
S=C(NCc1ccccc1)Nc1ccc(Cc2ccncc2)cc1	96	4.75
CN(C)Cc1ccc(CNC(=O)COc2ccc3ccccc3c2)cc1	83	10.8
COc1ccc(-n2c(C)cc(CNCc3ccc(CN(C)C)cc3)c2C)cc1	75	
O=C(CCc1ccc(CN2CCCC2)cc1)Cn1cnc2sc(-c3ccccc3)cc2c1=O	87	5.02
CCCCCCCCCCCC[N+](C)(C)[O-]	100	6.31
CN(C)Cc1ccc(CNC(=O)Nc2ccc(Cl)cc2)cc1	97	3.12
